The results in this text go back to US20200121677A1, “SUBSTITUTED 6,7-DIHYDROPYRAZOLO[1,5-a]PYRAZINES AS NEGATIVE ALLOSTERIC MODULATORS OF MGLUR2 RECEPTORS” (Janssen Pharmaceutica NV, priority 2014, published 2020).

One series has as its target human mGlu2 receptor (Homo sapiens, UniProt Q14416). Put plainly: [35S]GTPγS binding assay, mGluR2 negative allosteric modulation (membranes from CHO cells transfected with human mGlu2 receptor, glutamate ~EC80 60 μM).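 On all read-outs here: membranes preincubated 30 min at 30 °C with compound plus glutamate, then [35S]GTPγS (0.1 nM) incorporation measured over another 30 min at 30 °C.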 As to conditions: for IC50: GTPγS - hmGluR2 anGT pIC50, membranes with human mGlu2 receptor, glutamate ~EC80 (60 μM), pIC50 = -log IC50 (M); for Emax: read-out: GTPγS - hmGluR2 anGT Emax, relative maximal effect: maximal % inhibition relative to the control glutamate response.

Sequence of human mGlu2 receptor (Q14416 19-872): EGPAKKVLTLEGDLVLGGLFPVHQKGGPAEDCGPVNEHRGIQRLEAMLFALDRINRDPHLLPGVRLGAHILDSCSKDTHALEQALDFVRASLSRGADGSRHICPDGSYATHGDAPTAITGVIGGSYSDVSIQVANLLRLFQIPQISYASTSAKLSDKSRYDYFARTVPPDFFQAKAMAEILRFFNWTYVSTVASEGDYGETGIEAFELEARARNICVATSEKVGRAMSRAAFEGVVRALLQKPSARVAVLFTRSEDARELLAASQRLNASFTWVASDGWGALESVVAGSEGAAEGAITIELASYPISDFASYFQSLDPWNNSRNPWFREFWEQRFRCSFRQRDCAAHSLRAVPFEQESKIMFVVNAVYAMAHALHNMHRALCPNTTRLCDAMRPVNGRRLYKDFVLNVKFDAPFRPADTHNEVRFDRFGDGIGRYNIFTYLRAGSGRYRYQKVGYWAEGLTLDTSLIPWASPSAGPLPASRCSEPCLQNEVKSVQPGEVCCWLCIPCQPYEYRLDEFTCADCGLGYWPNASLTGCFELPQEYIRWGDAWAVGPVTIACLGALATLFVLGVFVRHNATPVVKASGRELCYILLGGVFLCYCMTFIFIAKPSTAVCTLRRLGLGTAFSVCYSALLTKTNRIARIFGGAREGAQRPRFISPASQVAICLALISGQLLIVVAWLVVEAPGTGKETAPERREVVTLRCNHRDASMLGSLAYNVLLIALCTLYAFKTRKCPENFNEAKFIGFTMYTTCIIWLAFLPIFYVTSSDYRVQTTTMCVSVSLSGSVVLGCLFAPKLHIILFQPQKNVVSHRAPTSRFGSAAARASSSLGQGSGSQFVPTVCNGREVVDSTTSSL
Procedure for human mGlu2 receptor: The [^35S]GTPγS binding assay is a functional membrane-based assay used to study G-protein coupled receptor (GPCR) function whereby incorporation of a non-hydrolysable form of GTP, [^35S]GTPγS (guanosine 5′-triphosphate, labelled with gamma-emitting ^35S), is measured. […] Here we describe the use of the [^35S]GTPγS binding assay using membranes from cells transfected with the human mGlu2 receptor and adapted from Schaffhauser et al. (Molecular Pharmacology, 2003, 4:798-810) for the detection of the negative allosteric modulation (NAM) properties of the compounds of this invention.
CHO-cells were cultured to pre-confluence and stimulated with 5 mM butyrate for 24 h. Cells were then collected by scraping in PBS and cell suspension was centrifuged (10 min at 4000 RPM in benchtop centrifuge). Supernatant was discarded and pellet gently resuspended in 50 mM Tris-HCl, pH 7.4 by mixing with an Ultra Turrax homogenizer. The suspension was centrifuged at 12,400 RPM (Sorvall F14S-6x250Y) for 10 minutes and the supernatant discarded. The pellet was homogenized in 5 mM Tris-HCl, pH 7.4 using an Ultra Turrax homogenizer and centrifuged again (13,000 RPM, 20 min, 4° C.). The final pellet was resuspended in 50 mM Tris-HCl, pH 7.4 and stored at −80° C. in appropriate aliquots before use. Protein concentration was determined by the Bradford method (Bio-Rad, USA) with bovine serum albumin as standard.
Measurement of mGluR2 negative allosteric modulatory activity of test compounds was performed as follows. Test compounds and glutamate were diluted in assay buffer containing 10 mM HEPES acid, 10 mM HEPES salt, pH 7.4, 100 mM NaCl, 3 mM MgCl2 and 10 μM GDP. Human mGlu2 receptor-containing membranes were thawed on ice and diluted in assay buffer supplemented with 18 μg/ml saponin. Membranes were pre-incubated with compound together with a predefined (˜EC80) concentration of glutamate (60 μM) for 30 min at 30° C. After addition of [^35S]GTPγS (f.c. 0.1 nM), assay mixtures were shaken briefly and further incubated to allow [^35S]GTPγS incorporation on activation (30 minutes, 30° C.). Final assay mixtures contained 7 μg of membrane protein in 10 mM HEPES acid, 10 mM HEPES salt, pH 7.4, 100 mM NaCl, 3 mM MgCl2, 10 μM GDP and 10 μg/ml saponin. Total reaction volume was 200 μl. Reactions were terminated by rapid filtration through Unifilter-96 GF/B plates (Perkin Elmer, Massachusetts, USA) using a 96-well filtermate universal harvester. Filters were washed 6 times with ice-cold 10 mM NaH2PO4/10 mM Na2HPO4, pH 7.4. Filters were then air-dried, and 30 μl of liquid scintillation cocktail (Microscint-O) was added to each well. Membrane-bound radioactivity was counted in a Topcount.
Data were calculated as % of the control glutamate response, defined as the response that is generated upon addition of an EC80-equivalent concentration of glutamate.

`Cc1c(F)cncc1NC(=O)c1cnn2c1C(=O)N(c1ccc(Cl)cc1)C[C@@H]2C` [compound 129] came in with a melting point of 189.99 °C. For the same molecule, at human mGlu2 receptor, the half-inhibitory concentration (IC50) is 6.17e-09 M and the Emax was found to be 110%.
In the case of `C[C@H]1CN(c2ccc(Cl)c(Cl)c2)C(=O)c2c(C(=O)Nc3cncc(F)n3)cnn21` [compound 146], the melting point was determined as 172.9 °C. At human mGlu2 receptor, the IC50 was 9.55e-10 M and the Emax is 128%.
Take `Cc1ncc(NC(=O)c2cnn3c2C(=O)N(c2ccc(C(F)(F)F)cc2)C[C@@H]3C)cn1` [compound 99]: the melting point turned out to be 223.3 °C. On human mGlu2 receptor, the IC50 was 4.57e-08 M and the Emax turned out to be 100%.
For `Cc1ncccc1NC(=O)c1cnn2c1C(=O)N(c1ccc(C(F)(F)F)cc1)C[C@@H]2C` [compound 10], the melting point is 171.6 °C. At human mGlu2 receptor, the half-maximal inhibitory concentration (IC50) was 2e-08 M and the Emax is 113%.
The molecule `C[C@H]1CN(c2ccc(C(F)(F)F)cc2)C(=O)c2c(C(=O)NC(=O)C3CCC3)cnn21` [compound 137, (7S)—N-(cyclobutanecarbonyl)-7-methyl-4-oxo-5-[4-(trifluoromethyl)phenyl]-6,7-dihydropyrazolo[1,5-a]pyrazine-3-carboxamide] gave a melting point of 237.74 °C. In addition, at human mGlu2 receptor, the IC50 was 4.07e-08 M and the Emax turned out to be 107%.
On the same counts, the results for `C[C@H]1CN(c2ccc(C(F)(F)F)cc2)C(=O)c2c(C(=O)Nc3ncccn3)cnn21` [compound 103] are 248.3 °C, 1.02e-07 M and 104%.
`C[C@H]1CN(c2ccc(C(F)(F)F)cc2)C(=O)c2c(C(=O)NC3CCC3)cnn21` [compound 71] displayed a melting point of 208.2 °C. On human mGlu2 receptor, the IC50 came to 7.08e-08 M and the Emax came to 111%.
Molecule `O=C(Nc1cccnc1)c1cnn2c1C(=O)N(c1ccc(C(F)(F)F)cc1)CC2` [compound 153] had a melting point of 229.9 °C. On human mGlu2 receptor, the IC50 was 1.23e-07 M and the Emax worked out at 111%.
On the same counts, the results for `Cc1cc(CNC(=O)c2cnn3c2C(=O)N(c2ccc(C(F)(F)F)cc2)C[C@@H]3C)ccn1` [compound 63] are 148.8 °C, 1.17e-07 M and 99%.
Molecule `COc1cccnc1NC(=O)c1cnn2c1C(=O)N(c1ccc(C(F)(F)F)cc1)C[C@@H]2C` [compound 11] returned a melting point of 164.7 °C. For the same molecule, at human mGlu2 receptor, the IC50 is 2.4e-07 M and the Emax was determined as 109%.
On the same counts, the results for `C[C@H]1CN(c2ccc(C(F)(F)F)cc2)C(=O)c2c(C(=O)NCc3ccc(N)nc3)cnn21` [compound 136, (7S)—N-[(6-Amino-3-pyridyl)methyl]-7-methyl-4-oxo-5-[4-(trifluoromethyl)phenyl]-6,7-dihydropyrazolo[1,5-a]pyrazine-3-carboxamide] are 104.2 °C, 1.55e-06 M and 104%.
Molecule `C[C@H]1CN(c2ccc(C(F)(F)F)cc2)C(=O)c2c(C(=O)Nc3ncco3)cnn21` [compound 139] gave a melting point of 204.9 °C. Besides, at human mGlu2 receptor, the IC50 is 2.57e-08 M and the Emax was found to be 109%.
On the same counts, the results for `Cc1cncc(NC(=O)c2cnn3c2C(=O)N(c2ccc(C(F)(F)F)c(F)c2)C[C@@H]3C)c1` [compound 22] are 246.7 °C, 3.55e-09 M and 109%.
In the case of `Cc1cc(N2C[C@H](C)n3ncc(C(=O)Nc4cncc(F)c4C)c3C2=O)ccc1Cl` [compound 79], the melting point came to 182 °C. Further, at human mGlu2 receptor, the 50% inhibitory concentration (IC50) is 1.66e-09 M and the Emax was 112%.
As for `C[C@H]1CN(c2ccc(C(F)(F)F)cc2)C(=O)c2c(C(N)=O)cnn21` [compound 73, (7S)-7-methyl-4-oxo-5-[4-(trifluoromethyl)phenyl]-6,7-dihydropyrazolo [1,5-a]pyrazine-3-carboxamide], the melting point was determined as 275 °C. Moreover, at human mGlu2 receptor, the half-inhibitory concentration (IC50) is 1.35e-06 M and the Emax was determined as 95%.
In the case of `C[C@H]1CN(c2ccc(C(F)(F)F)cc2)C(=O)c2c(C(=O)NCC3CCC3)cnn21` [compound 58], the melting point worked out at 204.6 °C. On human mGlu2 receptor, the IC50 was 1.82e-08 M and the Emax was determined as 113%.
Regarding `C[C@H]1CN(c2ccc(C(F)(F)F)c(F)c2)C(=O)c2c(C(=O)Nc3cncc(F)c3)cnn21` [compound 24], the melting point is 204 °C. Further, on human mGlu2 receptor, the IC50 is 3.24e-09 M and the Emax amounted to 107%.
Molecule `C[C@H]1CN(c2ccc(C(F)(F)F)cc2)C(=O)c2c(C(=O)Nc3cncc(F)n3)cnn21` [compound 145] gave a melting point of 209.5 °C. At human mGlu2 receptor, the concentration for half-maximal inhibition (IC50) is 1.23e-09 M and the Emax is 126%.
On the same counts, the results for `C[C@H]1CN(c2ccc(C(F)(F)F)cc2)C(=O)c2c(C(=O)Nc3ncc[nH]3)cnn21` [compound 142] are 257.9 °C, 2.14e-07 M and 110%.
For `C[C@H]1CN(c2ccc(C(F)(F)F)c(F)c2)C(=O)c2c(C(=O)Nc3cnccn3)cnn21` [compound 113] the same measures were 181.5 °C, 3.16e-09 M and 107%.
On the same counts, the results for `C[C@H]1CN(c2ccc(C(F)(F)F)c(CF)c2)C(=O)c2c(C(=O)Nc3ccncc3)cnn21` [compound 52] are 197.4 °C, 2.57e-09 M and 118%.
Turning to `Cc1cc(NC(=O)c2cnn3c2C(=O)N(c2ccc(C(F)(F)F)c(CF)c2)C[C@@H]3C)ccn1` [compound 54], the melting point came to 141.3 °C. Further, at human mGlu2 receptor, the IC50 is 5.25e-09 M and the Emax came to 118%.
`COc1nc(N2C[C@H](C)n3ncc(C(=O)Nc4ccccc4)c3C2=O)ccc1Cl` [compound 83, (7S)-5-(5-Chloro-6-methoxy-2-pyridyl)-7-methyl-4-oxo-N-phenyl-6,7-dihydropyrazolo[1,5-a]pyrazine-3-carboxamide]: the melting point worked out at 203.08 °C. Besides, on human mGlu2 receptor, the IC50 is 1.55e-08 M and the Emax was 111%.
On the same counts, the results for `COc1cncc(NC(=O)c2cnn3c2C(=O)N(c2ccc(C(F)(F)F)c(OC)c2)C[C@@H]3C)c1` [compound 34] are 191.5 °C, 1.05e-08 M and 107%.
On the same counts, the results for `COc1cnccc1NC(=O)c1cnn2c1C(=O)N(c1ccc(C(F)(F)F)cc1)C[C@@H]2C` [compound 16] are 200.8 °C, 1.38e-08 M and 115%.
On the same counts, the results for `Cc1cc(N2C[C@H](C)n3ncc(C(=O)Nc4cncc(F)c4C)c3C2=O)ccc1C(F)(F)F` [compound 125] are 156.83 °C, 2.34e-09 M and 110%.
On to `C[C@H]1CN(c2ccc(C(F)(F)F)cc2)C(=O)c2c(C(=O)NCC3CCOC3)cnn21` (stereo partly drawn) [compound 64], for which the melting point stood at 68.3 °C. For the same molecule, on human mGlu2 receptor, the IC50 was 1.7e-07 M and the Emax was found to be 107%.
For `C[C@H]1CN(c2ccc(C(F)(F)F)cc2)C(=O)c2c(C(=O)Nc3cccc(S(C)(=O)=O)c3)cnn21` [compound 2] the same measures were 217.7 °C, 1.7e-09 M and 103%.
